# Data reported in US20220332774A1, “THERAPEUTIC MITOCHONDRIAL PEPTIDES” (priority 2019, published 2022).
# Tests used:
# 3T3-L1 Mouse Adipocytes = experiment: Free fatty acid levels in cultured 3T3-L1 mouse adipocytes (isoproterenol stimulated); type: cell-based; conditions: free fatty acid in medium; 5 μM peptide, 20-22 h pre-incubation then 3 h with 0.1 nM isoproterenol; isoproterenol alone = 100%
# Experimental: The effect of the peptides on fatty acid metabolism can be assessed using an assay to monitor free fatty acid levels produced by cultured cells such as mouse adipocytes. Peptide arrays were initially prepared as 5 mM stock in DMSO and diluted to 0.5 mM in H2O; peptides were used at a final concentration of 5 μM (0.1% DMSO). Calculations for peptide concentrations based on approximate molecular weight of 2000 Daltons. […] Mouse 3T3-L1 cells purchased from ZenBio (Research Triangle Park, NC) were seeded at 3,000 cells per well in 96-well plates in Pre-adipocyte Medium (Zen-Bio) and grown to confluence at 37° C. in a humidified atmosphere of 5% CO2/95% air. Two days after confluence, cells were placed in Adipocyte Differentiation Medium (Zen-Bio) and cultured for three additional days at 37° C. in a humidified atmosphere of 5% CO2/95% air. The culture medium was then replaced with Adipocyte Maintenance Medium (Zen-Bio) and the cells maintained for an additional 9 days at 37° C. in a humidified atmosphere of 5% CO2/95% air with partial medium replacement every other day. Following 12 days of differentiation, medium was replaced Adipocyte Maintenance Medium without insulin and the cultures placed at 37° C. in a humidified atmosphere of 5% CO2/95% air. On day 13 of differentiation, test peptides were added directly to each well (without replacing the medium) at a final concentration of 5 μM in 0.1% DMSO and incubated for 20-22 hours at 37° C. in a humidified atmosphere of 5% CO2/95% air. […] Cells were incubated for 3 hours in Assay Buffer (Zen-Bio) at 37° C. in a humidified atmosphere of 5% CO2/95% air. Following 3 h incubation, conditioned medium from each well was transferred to a fresh 96-well plate. Free fatty acid concentrations in the medium were determined using a Free Fatty Acid Assay kit (Zen-Bio) according to the manufacturer's instructions; absorbance was measured using a Cytation 3 plate reader at 540 nm (BioTek, Winooski, Vt.). Treatment with 0.1 nM isoproterenol alone was used as the free fatty acid level stimulatory control. Absorbance values were expressed as percent control activity relative to 0.1 nM isoproterenol alone treated cells, 100%. The relative standard deviation of the isoproterenol control was <10%. Insulin at 0.25 nM was used as a potent control for decreasing free fatty acid levels. […] Data presented are representative values from 2 independent experiments with each data point performed in triplicate in each independent experiment.
# C2C12 Cells = experiment: Glucose utilization in cultured C2C12 cells (myotubes); type: cell-based, mouse; conditions: glucose concentration in medium relative to untreated cells; 5 μM peptide, 22 h
# Experimental: The effect of the peptides on glucose homeostasis can be assessed using an assay to monitor glucose utilization by cultured cells such as mouse myotubes. Peptide arrays were initially prepared as 5 mM stock in DMSO and diluted to 0.5 mM in H2O; peptides were used at a final concentration of 5 μM (0.1% DMSO). Calculations for peptide concentrations based on approximate molecular weight of 2000 Daltons. C2C12 mouse muscle cell line was purchased from Millipore Sigma (Saint Louis, Mo.). C2C12 cells were seeded in standard medium (DMEM/low glucose (1 g/L)+10% Fetal Bovine Serum+antibiotics) at 7,500 cells/well on 96-well plates and grown to confluence at 37° C. in a humidified atmosphere of 5% CO2/95% air. Three days after plating the medium was removed and with Differentiation Medium (DMEM/low glucose (1 g/L)+2% Horse Serum+antibiotics) added. The cultures were placed at 37° C. in a humidified atmosphere of 5% CO2/95% air for 5 days with partially replacement of medium daily. After 5 days of differentiation, the medium was removed from myotube cultures and replaced with Assay Medium (DMEM/low glucose (1 g/L)+antibiotics). Culture were placed at 37° C. in a humidified atmosphere of 5% CO2/95% air for 5 h. Following the 5 h incubation the medium was removed and fresh Assay Medium containing compounds was added; 5 μM peptide or 1 mM metformin as a potent stimulator of glucose utilization. Cells were incubated for 22 h at 37° C. in a humidified atmosphere of 5% CO2/95% air. Following 22 h incubation, conditioned medium from each well was transferred to a fresh 96-well plate. Glucose concentrations in the medium were determined using a Glucose Assay kit (Abcam; Cambridge, Mass.) according to the manufacturer's instructions; absorbance measured using a Cytation 3 plate reader at 570 nm (BioTek, Winooski, Vt.). Untreated cells were used as reference for basal glucose utilization. Absorbance values were expressed as percent control activity relative to untreated treated cells for 5 μM peptide. The relative standard deviation from plate to plate of untreated control was <10%. […] Data presented are representative values from 2-3 independent experiments with each data point performed in triplicate in each independent experiment.
# H4-IIE Cells = experiment: Glucose production in cultured H4-IIE cells; type: cell-based, rat; conditions: glucose concentration in medium relative to untreated cells; 5 μM peptide, 24 h
# Experimental: The effect of the peptides on glucose homeostasis can be assessed using an assay to monitor glucose production by cultured cells such as rat hepatocytes. Peptide arrays were initially prepared as 5 mM stock in DMSO and diluted to 0.5 mM in H2O; peptides were used at a final concentration of 5 μM (0.1% DMSO). Calculations for peptide concentrations based on approximate molecular weight of 2000 Daltons. H4-IIE rat hepatic cell line was purchased from American Type Culture Collection (Manassas, Va.). H4-IIE cells were seeded in standard medium (DMEM/high glucose+10% Fetal Bovine Serum+antibiotics) at 100,000 cells/well on 96-well plates and allowed to adhere overnight at 37° C. in a humidified atmosphere of 5% CO2/95% air. 24 h after seeding, the medium was removed, cells were rinsed with glucose free DMEM, and the medium replaced with Glucose Production Medium (glucose free DMEM+2 mM sodium pyruvate+10 mM sodium lactate+antibiotics). The cultures were placed at 37° C. in a humidified atmosphere of 5% CO2/95% air overnight. The next morning, the medium was removed and fresh Glucose Production Medium containing compounds was added; 5 uM peptide or 0.5-1 nM insulin as a potent inhibitor of glucose production. Cells were incubated for 24 h at 37° C. in a humidified atmosphere of 5% CO2/95% air. Following 24 h incubation, conditioned medium from each well was transferred to a fresh 96-well plate. Glucose concentrations in the medium were determined using a Glucose Assay kit (Abcam; Cambridge, Mass.) according to the manufacturer's instructions; absorbance measured using a Cytation 3 plate reader at 570 nm (BioTek, Winooski, Vt.). Untreated cells were used as reference for maximal glucose production. Absorbance values were expressed as percent control activity relative to untreated treated cells for 5 μM peptide. The relative standard deviation from plate to plate of untreated control was <25%. […] Glucose levels for 0.5-1 nM insulin treatment were <5% of the untreated control value. Data are presented as representative values from 2-3 independent experiments with each data point performed in triplicate in each independent experiment.
substance,measurement,setting,value
45 (MHGELPWVVN) [compound 45],Percent of Isoproterenol Control Activity,3T3-L1 Mouse Adipocytes,98%
same,Percent of Control Activity,C2C12 Cells,108%
same,Percent of Control Activity,H4-IIE Cells,107%
46 (MHHMKHPIIC) [compound 46],Percent of Isoproterenol Control Activity,3T3-L1 Mouse Adipocytes,98%
same,Percent of Control Activity,C2C12 Cells,104%
same,Percent of Control Activity,H4-IIE Cells,106%
47 (MHKHYYNKHPHHYNLP) [compound 47],Percent of Isoproterenol Control Activity,3T3-L1 Mouse Adipocytes,96%
same,Percent of Control Activity,C2C12 Cells,103%
same,Percent of Control Activity,H4-IIE Cells,107%
48 (MHKRLSPIYYSHRYLPDKRL) [compound 48],Percent of Isoproterenol Control Activity,3T3-L1 Mouse Adipocytes,91%
same,Percent of Control Activity,C2C12 Cells,104%
same,Percent of Control Activity,H4-IIE Cells,101%
49 (MHLVFSSGGYARDSIA) [compound 49],Percent of Isoproterenol Control Activity,3T3-L1 Mouse Adipocytes,87%
same,Percent of Control Activity,C2C12 Cells,108%
same,Percent of Control Activity,H4-IIE Cells,104%
50 (MHQSCKPEMKTFFQGQI) [compound 50],Percent of Isoproterenol Control Activity,3T3-L1 Mouse Adipocytes,100%
same,Percent of Control Activity,C2C12 Cells,99%
same,Percent of Control Activity,H4-IIE Cells,106%
51 (MIEMGASFCHV) [compound 51],Percent of Isoproterenol Control Activity,3T3-L1 Mouse Adipocytes,89%
same,Percent of Control Activity,C2C12 Cells,103%
same,Percent of Control Activity,H4-IIE Cells,111%
52 (MITVPAHKGMAMA) [compound 52],Percent of Isoproterenol Control Activity,3T3-L1 Mouse Adipocytes,92%
same,Percent of Control Activity,C2C12 Cells,104%
same,Percent of Control Activity,H4-IIE Cells,107%
53 (MIYVSSDVGDWWKGGWGVWWVVHG) [compound 53],Percent of Isoproterenol Control Activity,3T3-L1 Mouse Adipocytes,91%
same,Percent of Control Activity,C2C12 Cells,101%
same,Percent of Control Activity,H4-IIE Cells,115%
54 (MKFEIWLGWC) [compound 54],Percent of Isoproterenol Control Activity,3T3-L1 Mouse Adipocytes,104%
same,Percent of Control Activity,C2C12 Cells,103%
same,Percent of Control Activity,H4-IIE Cells,113%
55 (MKHRQVLWVLSCGS) [compound 55],Percent of Isoproterenol Control Activity,3T3-L1 Mouse Adipocytes,98%
same,Percent of Control Activity,C2C12 Cells,103%
same,Percent of Control Activity,H4-IIE Cells,118%
56 (MKNHRCISTT) [compound 56],Percent of Isoproterenol Control Activity,3T3-L1 Mouse Adipocytes,89%
same,Percent of Control Activity,C2C12 Cells,104%
same,Percent of Control Activity,H4-IIE Cells,112%
57 (MKPFTVHSTLQSNPFSSPWMTPL) [compound 57],Percent of Isoproterenol Control Activity,3T3-L1 Mouse Adipocytes,102%
same,Percent of Control Activity,C2C12 Cells,107%
same,Percent of Control Activity,H4-IIE Cells,112%
58 (MKPMSPMRLY) [compound 58],Percent of Isoproterenol Control Activity,3T3-L1 Mouse Adipocytes,105%
same,Percent of Control Activity,C2C12 Cells,101%
same,Percent of Control Activity,H4-IIE Cells,112%
59 (MKSPSTLTTQSKTPSAYFSSFSP) [compound 59],Percent of Isoproterenol Control Activity,3T3-L1 Mouse Adipocytes,100%
same,Percent of Control Activity,C2C12 Cells,108%
same,Percent of Control Activity,H4-IIE Cells,108%
60 (MLEIVMGMETYHMSNA) [compound 60],Percent of Isoproterenol Control Activity,3T3-L1 Mouse Adipocytes,94%
same,Percent of Control Activity,C2C12 Cells,101%
same,Percent of Control Activity,H4-IIE Cells,105%
61 (MLFMRGNAMSGAPII) [compound 61],Percent of Isoproterenol Control Activity,3T3-L1 Mouse Adipocytes,86%
same,Percent of Control Activity,C2C12 Cells,104%
same,Percent of Control Activity,H4-IIE Cells,107%
